Test system: 883617-216-R-J1-PDC complex spheroids, growth, % test/control
Assay: Anticancer human tumor 883617-216-R-J1-PDC patient-derived bladder carcinoma cell line growth inhibition [AhR]
Settings: for IC50: curve of first compound; for viability, T/C: stronger effect = lower value
Summary of the method: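 Agents were dosed in half-log steps down from roughly clinical Cmax, or from 10 microM where Cmax was unknown, alone and with AhR antagonists. Read-out: percent test/control growth of tumor spheroids containing HUVEC and MSC stromal cells.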

[1] = second compound 0.1 µM, first compound 0.00949 µM
[2] = second compound 0.1 µM, first compound 0.03 µM
[3] = second compound 0.1 µM, first compound 0.0949 µM
[4] = second compound 0.1 µM, first compound 0.3 µM
[5] = second compound 0.316 µM, first compound 0.00949 µM
[6] = second compound 0.316 µM, first compound 0.03 µM
[7] = second compound 0.316 µM, first compound 0.0949 µM
[8] = second compound 0.316 µM, first compound 0.3 µM
[9] = second compound 1 µM, first compound 0.00949 µM
[10] = second compound 1 µM, first compound 0.03 µM
[11] = second compound 1 µM, first compound 0.0949 µM
[12] = second compound 1 µM, first compound 0.3 µM
[13] = second compound 3.16 µM, first compound 0.00949 µM
[14] = second compound 3.16 µM, first compound 0.03 µM
[15] = second compound 3.16 µM, first compound 0.0949 µM
[16] = second compound 3.16 µM, first compound 0.3 µM
[17] = second compound 10 µM, first compound 0.00949 µM
[18] = second compound 10 µM, first compound 0.03 µM
[19] = second compound 10 µM, first compound 0.0949 µM
[20] = second compound 10 µM, first compound 0.3 µM
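Also: exposure lasted 7 days after dosing on day 3 of spheroid growth.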

SMILES: CCc1c2c(nc3ccc(O)cc13)-c1cc3c(c(=O)n1C2)COC(=O)[C@]3(O)CC + CC(CO)NC(=O)c1cc(-c2ccc(Cl)cc2)nn(-c2cnn(C)c2)c1=O
- IC50 (second compound 0.1 µM): > 300 nM
- IC50 (second compound 0.316 µM): > 300 nM
- IC50 (second compound 1 µM): > 300 nM
- IC50 (second compound 3.16 µM): > 300 nM
- IC50 (second compound 10 µM): 300 nM
- viability, T/C (second compound 0.1 µM, first compound 0.000949 µM): 50.4%
- viability, T/C (second compound 0.1 µM, first compound 0.003 µM): 64.7%
- viability, T/C [1]: 66.9%
- viability, T/C [2]: 39.6%
- viability, T/C [3]: 85.5%
- viability, T/C [4]: 86%
- viability, T/C (second compound 0.316 µM, first compound 0.000949 µM): 68.2%
- viability, T/C (second compound 0.316 µM, first compound 0.003 µM): 63.3%
- viability, T/C [5]: 87.4%
- viability, T/C [6]: 47.8%
- viability, T/C [7]: 69.9%
- viability, T/C [8]: 80.7%
- viability, T/C (second compound 1 µM, first compound 0.000949 µM): 83.1%
- viability, T/C (second compound 1 µM, first compound 0.003 µM): 88.2%
- viability, T/C [9]: 145%
- viability, T/C [10]: 64.1%
- viability, T/C [11]: 89.4%
- viability, T/C [12]: 63.9%
- viability, T/C (second compound 3.16 µM, first compound 0.000949 µM): 110%
- viability, T/C (second compound 3.16 µM, first compound 0.003 µM): 63.3%
- viability, T/C [13]: 40.5%
- viability, T/C [14]: 77.9%
- viability, T/C [15]: 92.7%
- viability, T/C [16]: 73.8%
- viability, T/C (second compound 10 µM, first compound 0.000949 µM): 73.2%
- viability, T/C (second compound 10 µM, first compound 0.003 µM): 61.7%
- viability, T/C [17]: 103%
- viability, T/C [18]: 87.3%
- viability, T/C [19]: 43.6%
- viability, T/C [20]: 57.4%

SMILES: CCN(c1cc(-c2ccc(CN3CCOCC3)cc2)cc(C(=O)NCc2c(C)cc(C)[nH]c2=O)c1C)C1CCOCC1 + Cc1cncc(-c2nc(NCCc3c[nH]c4ccccc34)c3ncn(C(C)C)c3n2)c1
- IC50 (second compound 0.1 µM): > 3000 nM
- IC50 (second compound 0.316 µM): > 3000 nM
- IC50 (second compound 1 µM): > 3000 nM
- IC50 (second compound 3.16 µM): > 3000 nM
- IC50 (second compound 10 µM): < 9.49 nM
- viability, T/C [1]: 93.3%
- viability, T/C [2]: 109%
- viability, T/C [3]: 94.1%
- viability, T/C [4]: 96.6%
- viability, T/C (second compound 0.1 µM, first compound 0.949 µM): 98.2%
- viability, T/C (second compound 0.1 µM, first compound 3 µM): 91.6%
- viability, T/C [5]: 103%
- viability, T/C [6]: 94.4%
- viability, T/C [7]: 97.1%
- viability, T/C [8]: 96.2%
- viability, T/C (second compound 0.316 µM, first compound 0.949 µM): 98.6%
- viability, T/C (second compound 0.316 µM, first compound 3 µM): 96.4%
- viability, T/C [9]: 103%
- viability, T/C [10]: 102%
- viability, T/C [11]: 110%
- viability, T/C [12]: 105%
- viability, T/C (second compound 1 µM, first compound 0.949 µM): 97.8%
- viability, T/C (second compound 1 µM, first compound 3 µM): 107%
- viability, T/C [13]: 93.7%
- viability, T/C [14]: 102%
- viability, T/C [15]: 112%
- viability, T/C [16]: 96.5%
- viability, T/C (second compound 3.16 µM, first compound 0.949 µM): 107%
- viability, T/C (second compound 3.16 µM, first compound 3 µM): 110%
- viability, T/C [17]: 52.3%
- viability, T/C [18]: 46.9%
- viability, T/C [19]: 47.2%
- viability, T/C [20]: 43.2%
- viability, T/C (second compound 10 µM, first compound 0.949 µM): 27.3%
- viability, T/C (second compound 10 µM, first compound 3 µM): 15.5%

SMILES: CC1COCCN1c1cc(-c2ccnn2C)c2ccnc(-c3ccn[nH]3)c2n1 (stereo not given) + Cc1ccccc1N=Nc1ccc(NC(=O)c2ccnn2C)c(C)c1
- IC50 (second compound 0.1 µM): 906 nM
- IC50 (second compound 0.316 µM): > 1000 nM
- IC50 (second compound 1 µM): 813 nM
- IC50 (second compound 3.16 µM): 491 nM
- IC50 (second compound 10 µM): 624 nM
- viability, T/C (second compound 0.1 µM, first compound 0.00316 µM): 98%
- viability, T/C (second compound 0.1 µM, first compound 0.01 µM): 96.6%
- viability, T/C (second compound 0.1 µM, first compound 0.0316 µM): 76.7%
- viability, T/C (second compound 0.1 µM, first compound 0.1 µM): 74.6%
- viability, T/C (second compound 0.1 µM, first compound 0.316 µM): 58.6%
- viability, T/C (second compound 0.1 µM, first compound 1 µM): 49.1%
- viability, T/C (second compound 0.316 µM, first compound 0.00316 µM): 97.7%
- viability, T/C (second compound 0.316 µM, first compound 0.01 µM): 83.3%
- viability, T/C (second compound 0.316 µM, first compound 0.0316 µM): 85.9%
- viability, T/C (second compound 0.316 µM, first compound 0.1 µM): 69.6%
- viability, T/C (second compound 0.316 µM, first compound 0.316 µM): 55.7%
- viability, T/C (second compound 0.316 µM, first compound 1 µM): 51.4%
- viability, T/C (second compound 1 µM, first compound 0.00316 µM): 84.4%
- viability, T/C (second compound 1 µM, first compound 0.01 µM): 88.8%
- viability, T/C (second compound 1 µM, first compound 0.0316 µM): 70.3%
- viability, T/C (second compound 1 µM, first compound 0.1 µM): 67.7%
- viability, T/C (second compound 1 µM, first compound 0.316 µM): 56%
- viability, T/C (second compound 1 µM, first compound 1 µM): 48.4%
- viability, T/C (second compound 3.16 µM, first compound 0.00316 µM): 86.5%
- viability, T/C (second compound 3.16 µM, first compound 0.01 µM): 81.2%
- viability, T/C (second compound 3.16 µM, first compound 0.0316 µM): 71.2%
- viability, T/C (second compound 3.16 µM, first compound 0.1 µM): 71.2%
- viability, T/C (second compound 3.16 µM, first compound 0.316 µM): 49.8%
- viability, T/C (second compound 3.16 µM, first compound 1 µM): 44.3%
- viability, T/C (second compound 10 µM, first compound 0.00316 µM): 77.9%
- viability, T/C (second compound 10 µM, first compound 0.01 µM): 79.7%
- viability, T/C (second compound 10 µM, first compound 0.0316 µM): 66.6%
- viability, T/C (second compound 10 µM, first compound 0.1 µM): 61.7%
- viability, T/C (second compound 10 µM, first compound 0.316 µM): 52.4%
- viability, T/C (second compound 10 µM, first compound 1 µM): 48.1%

— PubChem BioAssay AID1919004 (Molecular Pharmacology Branch, DTP, NCI, 2023)
